Results reported in ChEMBL document CHEMBL1201862, “PubChem BioAssay data set” (2004).
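Protocol summary: plate cells (96-well), add compound at 5 concentrations, incubate 48 h, interpolate endpoints linearly. GI50 = concentration required for 50% inhibition of growth.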 Calls of active or inactive are those of the source. No stated cut-off is given here; in the data, active = GI50 up to about 1.1 µM and inactive = higher.

How the values were obtained:
Assay in all cases: NCI tumour cell line growth inhibition, 48 h
[1] = tested on: ACHN
[2] = tested on: DLD-1
[3] = tested on: HCT-15
[4] = tested on: HL-60
[5] = tested on: HOP-62
[6] = tested on: HOP-92
[7] = tested on: NCI-H522
[8] = tested on: SF-268
[9] = tested on: SF-539
[10] = tested on: SN12C
[11] = tested on: SR
[12] = tested on: TK-10
[13] = tested on: UACC-257
[14] = tested on: XF498
[15] = tested on: DMS-114
[16] = tested on: MCF7
[17] = tested on: NCI/ADR-RES
[18] = tested on: OVCAR-3
[19] = tested on: PC-3
[20] = tested on: T47D

Row | Structure (SMILES) | GI50 [1] | GI50 [2] | GI50 [3] [µM] | GI50 [4] | GI50 [5] | GI50 [6] | GI50 [7] | GI50 [8] | GI50 [9] | GI50 [10] | GI50 [11] | GI50 [12] | GI50 [13] | GI50 [14] | GI50 [15] | GI50 [16] | GI50 [17] | GI50 [18] | GI50 [19] | GI50 [20]
1 | COC(=O)C(NC(=O)c1ccccc1)C(c1ccc(Cl)cc1)P(=O)(OC)OC (stereo not drawn) | > 100 µM (inactive) | > 100 µM (inactive) | > 100 | > 100 µM (inactive) | > 100 µM (inactive) | > 100 µM (inactive) | > 100 µM (inactive) | > 100 µM (inactive) | > 100 µM (inactive) | > 100 µM (inactive) | > 100 µM (inactive) | > 100 µM (inactive) | > 100 µM (inactive) | > 100 µM (inactive) | – | – | – | – | – | –
2 | Cc1ccc2nc3c(C(=O)NCCN(C)C)cccc3cc2c1 | – | 2.01 µM (inactive) | 0.834 | 1.23 µM (inactive) | 2.85 µM (inactive) | 1.75 µM (inactive) | – | 1.26 µM (inactive) | 3.15 µM (inactive) | 1.76 µM (inactive) | – | – | 2.09 µM (inactive) | 1.8 µM (inactive) | 1.53 µM (inactive) | 2.81 µM (inactive) | 1.13 µM (inactive) | 2 µM (inactive) | – | –
3 | CC(=O)O[C@H]1CC[C@H]2[C@@H]3CC[C@H]4Nc5c(cnn5S(C)(=O)=O)C[C@]4(C)[C@H]3CC[C@]12C | – | – | > 100 | > 100 µM (inactive) | 27.6 µM (inactive) | 98.9 µM (inactive) | 70 µM (inactive) | – | – | > 100 µM (inactive) | > 100 µM (inactive) | – | – | – | – | 28.6 µM (inactive) | 87.1 µM (inactive) | 27.5 µM (inactive) | 64.4 µM (inactive) | 37 µM (inactive)
4 | COC(=O)C(Cc1cn(C(C)=O)c2ccccc12)P(=O)(OC)OC (stereo not drawn) | > 100 µM (inactive) | – | > 100 | > 100 µM (inactive) | – | > 100 µM (inactive) | > 100 µM (inactive) | > 100 µM (inactive) | > 100 µM (inactive) | > 100 µM (inactive) | > 100 µM (inactive) | > 100 µM (inactive) | > 100 µM (inactive) | – | – | 20.7 µM (inactive) | > 100 µM (inactive) | > 100 µM (inactive) | > 100 µM (inactive) | > 100 µM (inactive)
5 | COc1cc2c(cc1OC)C(=O)/C(=C/c1cc(OC)c(OC)c(OC)c1)C2 | – | – | > 100 | > 100 µM (inactive) | 43.6 µM (inactive) | > 100 µM (inactive) | 14.6 µM (inactive) | – | – | > 100 µM (inactive) | > 100 µM (inactive) | – | – | – | – | > 100 µM (inactive) | 23.7 µM (inactive) | > 100 µM (inactive) | > 100 µM (inactive) | 90.2 µM (inactive)
6 | O=C1CN2C(Cl)(Cl)C2(c2ccccc2)c2cc(Cl)ccc2N1CC(F)(F)F (stereo not drawn) | 33.7 µM (inactive) | 16.4 µM (inactive) | 25.8 | > 10 µM (inactive) | 22.6 µM (inactive) | 13.6 µM (inactive) | 17.4 µM (inactive) | 38.4 µM (inactive) | – | 16.9 µM (inactive) | 28.9 µM (inactive) | 50.2 µM (inactive) | 19.6 µM (inactive) | – | 27.2 µM (inactive) | – | – | 18.8 µM (inactive) | – | –
7 | CC(C)C(/C=C/c1ccc(Cl)cc1)=N\NC(=O)N/N=C(/C=C/c1ccc(Cl)cc1)C(C)C | 29.2 µM (inactive) | – | 71.4 | > 100 µM (inactive) | 27.9 µM (inactive) | 21.7 µM (inactive) | > 10 µM (inactive) | 20 µM (inactive) | 16.7 µM (inactive) | 18.4 µM (inactive) | 30.8 µM (inactive) | 25.3 µM (inactive) | 57.5 µM (inactive) | – | – | > 100 µM (inactive) | 26.7 µM (inactive) | 19.6 µM (inactive) | > 100 µM (inactive) | 40.8 µM (inactive)
8 | O=S1(=O)C[C@@H](NCc2ccccc2)[C@H](NCc2ccccc2)C1 | > 100 µM (inactive) | – | – | – | 37.4 µM (inactive) | > 100 µM (inactive) | 73.6 µM (inactive) | > 100 µM (inactive) | > 100 µM (inactive) | > 100 µM (inactive) | > 100 µM (inactive) | > 100 µM (inactive) | > 100 µM (inactive) | – | – | > 100 µM (inactive) | > 100 µM (inactive) | > 100 µM (inactive) | > 100 µM (inactive) | > 100 µM (inactive)
9 | CN1C2CCC1C(CO)C(=O)C2 (stereo not drawn) | 38.6 µM (inactive) | – | 24.9 | 3.56 µM (inactive) | > 100 µM (inactive) | > 100 µM (inactive) | 16.1 µM (inactive) | > 100 µM (inactive) | 23.2 µM (inactive) | – | 26.1 µM (inactive) | 22.9 µM (inactive) | 85.1 µM (inactive) | – | – | 22.6 µM (inactive) | > 100 µM (inactive) | > 100 µM (inactive) | > 100 µM (inactive) | 21 µM (inactive)
10 | CN1C2CC(=O)CC1[C@H](O)[C@@H]2O | – | – | > 100 | > 100 µM (inactive) | > 100 µM (inactive) | – | – | > 100 µM (inactive) | – | > 100 µM (inactive) | > 100 µM (inactive) | > 100 µM (inactive) | > 100 µM (inactive) | – | – | > 100 µM (inactive) | > 100 µM (inactive) | > 100 µM (inactive) | > 100 µM (inactive) | > 100 µM (inactive)
11 | CC1OC1C(=O)C1(O)C(C)C(O)C23OC2(C(O)c2c(O)cccc2C3=O)C1O (stereo not drawn) [CERVICARCIN] | – | 0.167 µM (active) | 0.195 | 0.152 µM (active) | 0.0895 µM (active) | 0.033 µM (active) | 0.0964 µM (active) | 0.0984 µM (active) | 0.0647 µM (active) | 0.0557 µM (active) | – | – | 0.1 µM (active) | 0.253 µM (active) | 0.048 µM (active) | 0.228 µM (active) | 0.207 µM (active) | 0.0638 µM (active) | – | –
12 | COc1ccc2c3c1O[C@H]1C[C@@H](O)C=C[C@@]31CCN(C)C2 [GALANTAMINE] | – | 50 µM (inactive) | > 150 | 141 µM (inactive) | > 150 µM (inactive) | > 150 µM (inactive) | > 150 µM (inactive) | 87.7 µM (inactive) | > 18.9 µM (inactive) | > 150 µM (inactive) | – | – | > 150 µM (inactive) | > 150 µM (inactive) | > 150 µM (inactive) | > 36 µM (inactive) | > 150 µM (inactive) | > 150 µM (inactive) | – | –
